Columns and labels:
Hepatocyte [1] = experiment: Cellular uptake in Wistar rat hepatocytes at 5 uM after 2 mins; assay type: ADME, cell-based
Liver [2] = experiment: Drug uptake in Wistar rat liver assessed as liver uptake index at 0.2 mg/kg, iv in presence of cyclosporin A; assay type: ADME, organism-based; parameters: dose 0.2 mg/kg, route intravenous; details: in vivo
[3] = molecular target: T1, Solute carrier organic anion transporter family member 1B3 (Homo sapiens, UniProt Q9NPD5); experiment: Cellular uptake in HEK293 cells expressing OATP1B3 (unknown origin) assessed as inhibition of (-)-epigallocatechin gallate-mediated drug transport; assay type: ADME, cell-based
T1 sequence (Q9NPD5 whole entry): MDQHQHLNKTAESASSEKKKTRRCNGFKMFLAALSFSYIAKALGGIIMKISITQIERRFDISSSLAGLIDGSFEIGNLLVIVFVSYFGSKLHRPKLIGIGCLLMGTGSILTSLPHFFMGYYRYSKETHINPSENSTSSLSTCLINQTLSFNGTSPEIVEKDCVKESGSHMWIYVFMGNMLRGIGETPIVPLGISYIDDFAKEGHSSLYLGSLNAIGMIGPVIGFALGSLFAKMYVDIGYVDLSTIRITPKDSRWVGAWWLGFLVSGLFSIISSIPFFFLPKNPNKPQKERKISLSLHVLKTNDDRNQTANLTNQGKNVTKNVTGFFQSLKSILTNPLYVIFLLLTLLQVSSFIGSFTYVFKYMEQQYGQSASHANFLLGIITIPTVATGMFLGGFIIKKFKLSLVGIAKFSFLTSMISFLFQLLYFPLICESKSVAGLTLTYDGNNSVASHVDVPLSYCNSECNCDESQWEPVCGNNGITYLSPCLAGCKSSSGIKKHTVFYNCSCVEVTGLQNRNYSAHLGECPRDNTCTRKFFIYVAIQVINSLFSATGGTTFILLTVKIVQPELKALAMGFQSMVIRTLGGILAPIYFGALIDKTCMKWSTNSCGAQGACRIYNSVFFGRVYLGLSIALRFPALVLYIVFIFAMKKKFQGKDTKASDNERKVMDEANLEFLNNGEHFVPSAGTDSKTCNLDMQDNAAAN

[4] = molecular target: T1, Solute carrier organic anion transporter family member 1B3; experiment: Cellular uptake in HEK293 cells expressing OATP1B3 (unknown origin) assessed as inhibition of telmisartan-mediated drug transport; assay type: ADME, cell-based
Liver [5] = experiment: Drug uptake in Wistar rat liver assessed as liver uptake index at 0.2 mg/kg, iv; assay type: ADME, organism-based; parameters: dose 0.2 mg/kg, route intravenous; details: in vivo
Liver [6] = experiment: Drug uptake in Wistar rat liver assessed as liver uptake index at 0.2 mg/kg, iv in presence of rifampicin; assay type: ADME, organism-based; parameters: dose 0.2 mg/kg, route intravenous; details: in vivo
Liver [7] = experiment: Drug uptake in Wistar rat liver at 2.5 uM after 30 mins; assay type: ADME, tissue-based; details: in vivo, 0.5 h
[8] = Drug uptake in Wistar rat liver assessed as hepatic extraction ratio at 2.5 uM after 1 to 60 mins; assay type: ADME, tissue-based; details: read-out: ERH
[9] = Drug uptake in Wistar rat liver assessed as hepatic extraction ratio at 2.5 uM after 1 to 60 mins in presence of cyclosporin A; assay type: ADME, tissue-based; details: with cyclosporin A, read-out: ERH
[10] = Drug uptake in Wistar rat liver assessed as hepatic extraction ratio at 2.5 uM after 1 to 60 mins in presence of rifampicin; assay type: ADME, tissue-based; details: with rifampicin, read-out: ERH
Liver [11] = experiment: Drug uptake in Wistar rat liver at 5 uM after 15 mins by LC-MS/MS analysis; assay type: ADME, tissue-based; details: in vivo, 0.25 h
Liver [12] = experiment: Drug uptake in Wistar rat liver at 5 uM after 1 to 30 mins by LC-MS/MS analysis in presence of cyclosporin A; assay type: ADME, tissue-based; details: in vivo
Liver [13] = experiment: Drug uptake in Wistar rat liver at 5 uM after 1 to 30 mins by LC-MS/MS analysis in presence of ibuprofen; assay type: ADME, tissue-based; details: in vivo
Liver [14] = experiment: Drug uptake in Wistar rat liver at 5 uM after 1 to 30 mins by LC-MS/MS analysis in presence of digoxin; assay type: ADME, tissue-based; details: in vivo
Liver [15] = experiment: Drug uptake in Wistar rat liver at 5 uM after 1 to 30 mins by LC-MS/MS analysis in presence of rifampicin; assay type: ADME, tissue-based; details: in vivo
Liver [16] = experiment: Drug uptake in Wistar rat liver at 5 uM after 1 to 30 mins by LC-MS/MS analysis in presence of glycyrrhizic acid; assay type: ADME, tissue-based; details: in vivo
Liver [17] = experiment: Drug uptake in Wistar rat liver at 5 uM after 1 to 30 mins by LC-MS/MS analysis in presence of TEA; assay type: ADME, tissue-based; details: in vivo
Liver [18] = experiment: Drug uptake in Wistar rat liver at 5 uM after 1 to 30 mins by LC-MS/MS analysis in presence of PAH; assay type: ADME, tissue-based; details: in vivo
Hepatocyte [19] = experiment: Cellular uptake in Wistar rat hepatocytes at 2.5 uM after 2 mins; assay type: ADME, cell-based
Hepatocyte [20] = experiment: Cellular uptake in Wistar rat hepatocytes at 2.5 uM in presence of cyclosporin A; assay type: ADME, cell-based
Hepatocyte [21] = experiment: Cellular uptake in Wistar rat hepatocytes at 2.5 uM in presence of ibuprofen; assay type: ADME, cell-based
Hepatocyte [22] = experiment: Cellular uptake in Wistar rat hepatocytes at 2.5 uM in presence of digoxin; assay type: ADME, cell-based
Hepatocyte [23] = experiment: Cellular uptake in Wistar rat hepatocytes at 2.5 uM in presence of rifampicin; assay type: ADME, cell-based
Hepatocyte [24] = experiment: Cellular uptake in Wistar rat hepatocytes at 2.5 uM in presence of glycyrrhizic acid; assay type: ADME, cell-based
Hepatocyte [25] = experiment: Cellular uptake in Wistar rat hepatocytes at 2.5 uM in presence of TEA; assay type: ADME, cell-based
Hepatocyte [26] = experiment: Cellular uptake in Wistar rat hepatocytes at 2.5 uM in presence of PAH; assay type: ADME, cell-based
Hepatocyte [27] = experiment: Cellular uptake in Wistar rat hepatocytes at 2.5 uM in presence of Na+; assay type: ADME, cell-based
Hepatocyte [28] = experiment: Cellular uptake in Wistar rat hepatocytes at 2.5 uM in presence of K+; assay type: ADME, cell-based
[29] = Fraction unbound in Wistar rat plasma at 2.5 uM by LC-MS/MS analysis; assay type: ADME, cell-free
[30] = Ratio of drug level in blood to plasma in Wistar rat at 2.5 uM after 5 mins by LC-MS/MS analysis; assay type: ADME
[31] = Fraction unbound in Wistar rat blood; assay type: ADME, tissue-based
[32] = Clearance in human hepatocytes assessed per 10^6 cells; assay type: ADME, cell-based, Hepatocyte; details: read-out: CLH
[33] = Intrinsic clearance in human; assay type: ADME, organism-based; details: in vivo
[34] = Drug uptake in MDCK2 cells at 2.5 uM after 30 to 180 mins by LC-MS/MS analysis; assay type: ADME, cell-based, Canis lupus familiaris; details: dog, mdck-ii
[35] = Drug uptake in MDCK2 cells expressing OATP1B1 (unknown origin) at 2.5 uM after 30 to 180 mins by LC-MS/MS analysis; assay type: ADME, cell-based, Canis lupus familiaris; details: dog, mdck-ii
[36] = Drug uptake in MDCK2 cells expressing OATP1B1/MRP2 (unknown origin) at 2.5 uM after 30 to 180 mins by LC-MS/MS analysis; assay type: ADME, cell-based, Canis lupus familiaris; details: dog, mdck-ii
[37] = Plasma clearance in Wistar rat; assay type: ADME, organism-based
OATP1B3 = molecular target: T2, OATP1B3 (Homo sapiens, UniProt Q9NPD5); experiment: (§1) Activity at OATP1B3 (unknown origin) expressed in HEK293 cells assessed as compound transport; assay type: ADME, cell-based; details: HEK293 cells expressing OATP1B3
T2 sequence (Q9NPD5 whole entry): T1 sequence (Q9NPD5 whole entry)

[38] = molecular target: T1, Solute carrier organic anion transporter family member 1B3; experiment: as §1; assay type: ADME, cell-based; details: hek293
HEK293 = experiment: Cellular uptake in HEK293 cells at 2.5 uM after 1 min; assay type: ADME, cell-based; details: human, hek293, 1 min
[39] = Cellular uptake in Wistar rat hepatocytes at 0.2 to 2.5 uM; assay type: ADME, cell-based, Hepatocyte
Hepatocyte [40] = experiment: Cellular uptake in Wistar rat hepatocytes assessed as rate of drug transport per 10^6 cells at 0.2 to 2.5 uM; assay type: ADME, cell-based
[41] = molecular target: T1, Solute carrier organic anion transporter family member 1B3; experiment: Cellular uptake in HEK293 cells expressing OATP1B3 (unknown origin) assessed as inhibition of cyclosporin A-mediated drug transport; assay type: ADME, cell-based
[42] = molecular target: T1, Solute carrier organic anion transporter family member 1B3; experiment: Cellular uptake in HEK293 cells expressing OATP1B3 (unknown origin) assessed as inhibition of rifampicin-mediated drug transport; assay type: ADME, cell-based
OATP1B1 = experiment: Efflux ratio of permeability from basolateral to apical side to apical to basolateral side in MDCK2 cells expressing OATP1B1 (unknown origin) at 1 uM after 30 to 180 mins by LC-MS/MS analysis; assay type: ADME, cell-based, Canis lupus familiaris, MDCK-II; details: dog, MDCK
OATP1B1/MRP2 = experiment: Efflux ratio of permeability from basolateral to apical side to apical to basolateral side in MDCK2 cells expressing OATP1B1/MRP2 (unknown origin) at 1 uM after 30 to 180 mins by LC-MS/MS analysis; assay type: ADME, cell-based, Canis lupus familiaris, MDCK-II; details: dog

In the case of C[C@H]1O[C@@H](O[C@H]2[C@@H](O)C[C@H](O[C@H]3[C@@H](O)C[C@H](O[C@H]4CC[C@@]5(C)[C@H](CC[C@@H]6[C@@H]5C[C@@H](O)[C@]5(C)[C@@H](C7=CC(=O)OC7)CC[C@]65O)C4)O[C@@H]3C)O[C@@H]2C)C[C@H](O)[C@@H]1O [DIGOXIN], the Drug uptake (Hepatocyte [1]) is reported as “Active”.
With C[C@@H]1CC[C@@]2(OC1)O[C@H]1C[C@H]3[C@@H]4CC=C5C[C@@H](O[C@@H]6O[C@H](CO)[C@@H](O[C@@H]7O[C@@H](C)[C@H](O)[C@@H](O)[C@H]7O)[C@H](O)[C@H]6O[C@@H]6O[C@@H](C)[C@H](O)[C@@H](O)[C@H]6O)CC[C@]5(C)[C@H]4CC[C@]3(C)[C@H]1[C@@H]2C [DIOSCIN] the LUI (Liver [2]) was 6.9%, the Ki [3] was 8.29 µM and the Ki [4] was 1.03 µM. For the same compound, the LUI (Liver [5]) was 11.9%, the LUI (Liver [6]) was 5.5% and the Drug uptake (Liver [7]) was “Active”. For the same compound, the hepatic extraction ratio at 2.5 µM [8] was 0.15, the hepatic extraction ratio at 2.5 µM [9] was 0.074 and the hepatic extraction ratio at 2.5 µM [10] was 0.082. For the same compound, the Drug uptake (Liver [11]) was “Active”, the Drug uptake (Liver [12]) was “Not Active” and the Drug uptake (Liver [13]) was “Not Active”. For the same compound, the Drug uptake (Liver [14]) was “Not Active”, the Drug uptake (Liver [15]) was “Not Active” and the Drug uptake (Liver [16]) was “Not Active”. The Drug uptake (Liver [17]) was “Active”, the Drug uptake (Liver [18]) was “Active” and the Drug uptake (Hepatocyte [19]) was “Active”. For the same compound, the Drug uptake (Hepatocyte [20]) was “Not Active”, the Drug uptake (Hepatocyte [21]) was “Not Active” and the Drug uptake (Hepatocyte [22]) was “Not Active”. The Drug uptake (Hepatocyte [23]) was “Not Active”, the Drug uptake (Hepatocyte [24]) was “Not Active” and the Drug uptake (Hepatocyte [25]) was “Active”. For the same compound, the Drug uptake (Hepatocyte [26]) was “Active”, the Drug uptake (Hepatocyte [27]) was “Active” and the Drug uptake (Hepatocyte [28]) was “Active”. The fraction unbound at 2.5 µM [29] was 0.061, the blood plasma ratio at 5 min, 2.5 µM [30] was 0.771 and the fraction unbound [31] was 0.079. For the same compound, the hepatocyte CLint [32] was 35 µL/min/1e6 cells, the CLint scaled [33] was 168 mL/min/kg and the Drug uptake [34] was “Active”. For the same compound, the Drug uptake [35] was “Active”, the Drug uptake [36] was “Active” and the clearance [37] was 3.86 mL/min/kg. For the same compound, the Km (OATP1B3) was 2.08 µM, the Vmax [38] was 730 pmol/min/mg and the Drug uptake (HEK293) was “Active”. The Km at up to 2.5 µM [39] was 3.75 µM, the Vmax (Hepatocyte [40]) was 588 pmol/min and the Ki [41] was 1.43 µM. It also gave a Ki [42] of 4.55 µM.
Work on C[C@]12CC[C@@H]3c4ccc(OS(=O)(=O)O)cc4CC[C@H]3[C@@H]1CCC2=O [ESTRONE SULFURIC ACID] yielded an efflux ratio at 1 µM (OATP1B1) of 2.8 and an efflux ratio at 1 µM (OATP1B1/MRP2) of 4.2.
